Data published in publication PMC9782877 (Molecules, 2022).
Several values for one entry are separate records, joined by “and”; a condition that tells them apart may be missing. Identical values can stand only once.

Experiments:
[1] = Parallel artificial membrane permeability assay (PAMPA); format: in vitro ADME; conditions: pH 7.4, 5 h; for Papp at 5 h, 0.5 mM: room temperature, read-out: Apparent Permeability (Papp)
Procedure: The trend appreciated in terms of solubility was confirmed by results obtained from permeability studies. In fact, parallel artificial membrane permeability assay (PAMPA) underlined how the low solubility of compounds 6 and 7 was accompanied by a major tendency of these derivatives to interact with the lipidic artificial membrane where they probably remained entrapped.
In order to assess the apparent permeability of selected compounds, a stock solution in DMSO of each derivative was prepared at the final concentration of 1 mM. By diluting the stocks 1:1 v/v with phosphate buffer (PBS 25 mM, pH 7.4), donor solutions were made. To mimic the gastrointestinal (GI) phospholipidic bilayer, 10 µL of a 1% w/v dodecane solution of phosphatidylcholine (PC) was used to coat filters. The acceptor solution, made of 1:1 v/v DMSO/PBS, was added to each well (300 µL), while the donor solution (150 µL) was added to each well of the filter plate. The sandwich plates were assembled and incubated for 5 h at room temperature. At the time point, the plates were separated, and the amount of compound passed through the phospholipid bilayer was measured by UV/LC-MS. Finally, apparent permeability (Papp) and membrane retention (MR%) were calculated as previously reported by us.

Human plasma stability = format: in vitro ADME; conditions: 100 µM
Procedure: Finally, further studies were performed in order to investigate the stability in the presence of human plasma. All compounds were incubated at the fixed concentration of 100 µM in plasma for 24 h.
A DMSO stock solution of each compound was incubated in triplicate in the presence of human plasma and HEPES buffer (25 mM, 140 mM NaCl, pH 7.4) at the final concentration of 100 µM at 37 °C under shaking. At the selected time point of 0 and 24 h, 50 µL of the mixture was collected, treated with 1.0 mL of cold ACN, and centrifuged at 5000 rpm for 10 min. The supernatant was collected, and the amount of unmodified compound was quantified with the HLPC-UV/MS method above reported. Calculations of modified compounds were made using time zero as 100% of the unmodified compound.

HIV = tested on: HIV; design: method as in PMID 21698775; conditions: PBMC; read-out: EC50, antiretroviral effect; cited from earlier work
[2] = tested on: peripheral blood mononuclear cells (PBMC); design: method as in PMID 21698775; conditions: read-out: CC50, cytotoxicity; cited from earlier work
in vitro [3] = conditions: human
[4] = Aqueous solubility in Mill-Q H2O; conditions: water, thermodynamic from solid
Procedure: Chromatographic separations were obtained using a Phenomenex Kinetex C18-100 Å column (150 × 4.6 mm) with 5 µm particle size and gradient elution with a binary solution; (eluent A: H2O acidified with formic acid (FA) 0.1% v/v, eluent B: ACN/MeOH 1:1 v/v) at room temperature. The analysis started with 5% of B (from t = 0 to t = 1 min), then B was increased to 95% (from t = 1 to t = 10 min), then kept at 95% (from t = 10 to t = 15 min) and finally returned to 5% of eluent A in one minute. The instrument worked in positive mode and the UV detector operated at 254 nm.
One mg of each compound was added with 1 mL of Mill-Q H2O. The samples were maintained under shaking at room temperature (RT) overnight. The suspensions were filtered using a 0.45 µm nylon filter (Acrodisc), and the amount of solubilized compound was determined with the HPLC-UV-MS method above reported. The quantification of the solubilized compound was created with the appropriate calibration curve realized with stock solutions in DMSO (0.1–100 µg/mL); the limit of detection (LOD) was quantified at 0.1 µg/mL.

[5] = tested on: HIV-1 wild-type reference strain NL4-3; test: Anti-HIV-1 BiCycle Assay (H9 cells, then TZM-bl reporter cells); format: cell-based; conditions: Human immunodeficiency virus 1, NL43, H9, read-out: IC50, half-maximal compound concentration inhibiting the 50% of HIV-1 replication
in vitro [6] = conditions: human; remark: listed apart in the source
SARS-CoV-2 = test: microbe, parasite or virus in culture; format: cell-based; conditions: for SI, Selectivity Index (ratio between CC50 and IC50): Caco-2 cells, SARS-CoV-2; for IC50: Severe acute respiratory syndrome coronavirus 2, Caco-2, 72 h, read-out: IC50, half-maximal compound concentration inhibiting 50% of the SARS-CoV-2 replication
human helicase DDX3X = human helicase DDX3X (Homo sapiens, UniProt O00571); test: DDX3X ATPase inhibition, ADP-Glo assay; format: biochemical
Procedure: For the more promising compound, derivative 10a, the inhibition of the ATPase activity of the human helicase DDX3X was evaluated. Different concentrations of the compound were incubated with 1 µM of purified recombinant DDX3X and ATPase activity was determined with the ADP-glo assay.
The ATPase enzymatic activity of DDX3X was determined by the ADP-Glo kit (Promega, MD, USA). The reaction was performed in ATPase buffer (20 mM Tris–HCl pH 8, 2 mM DTT, 70 mM KCl, 2 mM MgCl2, 5% DMSO) pre-incubating 1 µM DDX3X with different concentrations of inhibitor for 10 min at 25 °C. ATPase reaction started with the addition of 1 mM ATP. After 30 min of incubation at 25 °C, the assay was conducted following the manufacturer’s instructions. The ATPase enzymatic activity was analyzed using a 384-wells plate and the GloMax Discover Microplate Reader (Promega, MD, USA) and expressed as a percentage of inhibition calculated from the light units obtained.

Sequence of human helicase DDX3X (O00571 whole entry): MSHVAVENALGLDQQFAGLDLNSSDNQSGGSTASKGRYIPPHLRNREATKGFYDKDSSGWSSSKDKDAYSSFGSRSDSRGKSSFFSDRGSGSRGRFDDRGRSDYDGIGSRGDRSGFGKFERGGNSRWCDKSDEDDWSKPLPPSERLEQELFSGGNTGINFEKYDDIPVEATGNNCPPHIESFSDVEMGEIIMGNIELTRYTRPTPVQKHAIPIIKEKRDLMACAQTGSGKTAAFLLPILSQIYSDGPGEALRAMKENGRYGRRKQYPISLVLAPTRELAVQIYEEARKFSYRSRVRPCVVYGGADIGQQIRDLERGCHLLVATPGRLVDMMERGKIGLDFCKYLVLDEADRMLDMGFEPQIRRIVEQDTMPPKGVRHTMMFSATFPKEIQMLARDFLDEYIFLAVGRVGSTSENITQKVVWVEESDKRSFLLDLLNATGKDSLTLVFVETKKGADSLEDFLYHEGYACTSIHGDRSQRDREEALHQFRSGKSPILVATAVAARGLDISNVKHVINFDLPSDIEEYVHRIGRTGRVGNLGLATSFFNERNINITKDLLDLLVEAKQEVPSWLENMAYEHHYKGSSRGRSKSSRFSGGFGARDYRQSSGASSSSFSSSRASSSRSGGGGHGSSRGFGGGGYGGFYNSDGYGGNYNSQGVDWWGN

Row | Compound | Membrane retention (MR) [1] [%] | Papp at 5 h, 0.5 mM [1] [×10⁻⁶ cm/s] | Plasma Stability % ± SD (Human plasma stability; 24 h, 37 °C) [%] | Plasma Stability % ± SD (Human plasma stability; time 0 h (set as 100%)) [%] | EC50 (HIV) [µM] | CC50 [2] [µM] | CC50 (in vitro [3]) [µM] | solubility [4] | IC50 [5] [µM] | CC50 (in vitro [6]) [µM] | SI, Selectivity Index (ratio between CC50 and IC50) (SARS-CoV-2) | IC50 (SARS-CoV-2) [µM] | IC50 (human helicase DDX3X) [µM]
1 | Oc1ccccc1C=NNc1nc(Nc2ccc(F)cc2)nc(Nc2ccc(F)cc2)n1 [compound 7] | 15.5 | 4.58 | 99.56 ± 3.78 | 100.00 ± 0.28 | 2 | 8 | 0.8 | < 0.1 µg/mL |  |  |  |  | 
2 | Cc1nnc(C(=O)NC(C)(C)c2nc(C(=O)NCc3ccc(F)cc3)c(O)c(=O)n2C)o1 [Raltegravir, reference compound] |  |  |  |  |  |  |  |  | 0.0028 ± 0.0017 | > 100 |  |  | 
3 | Oc1ccccc1C=NNc1nc(Nc2ccc(F)cc2)nc(N2CCOCC2)n1 [compound 6] | 28.7 | 4.74 | 98.78 ± 4.05 | 100.00 ± 0.19 | 2.5 | 10 | 3 | < 0.1 µg/mL |  |  |  |  | 
4 | Cc1cccc(/C=N/Nc2nc(N3CCOCC3)nc(N3CCOCC3)n2)c1 [10c] | 4.9 | 9.78 | 99.52 ± 3.45 | 100.00 ± 0.16 |  |  |  | 4.5 µg/mL and 11.7 µM |  | 74 |  |  | 
5 | CCC(CC)COC(=O)[C@H](C)N[P@](=O)(OC[C@H]1O[C@@](C#N)(c2ccc3c(N)ncnn23)[C@H](O)[C@@H]1O)Oc1ccccc1 [Remdesivir, reference compound] |  |  |  |  |  |  | 94.9 |  |  |  | 1356 | 0.07 ± 0.04 | 
6 | CC(=O)Nc1ccc(/C=N/Nc2nc(N3CCOCC3)nc(N3CCOCC3)n2)cc1 [10b] | 9.8 | 9.7 | 98.41 ± 4.69 | 100.00 ± 0.24 |  |  |  | 3.46 µg/mL and 8.13 µM |  |  |  |  | 
7 | Oc1ccccc1/C=N/Nc1nc(N2CCOCC2)nc(N2CCOCC2)n1 [10a] | 4.3 | 7.89 | 98.48 ± 4.02 | 100.00 ± 0.28 |  |  |  | 3.23 µg/mL and 8.51 µM |  |  | >33.1 | 12.1 | 6.6
